Tests used:
[1] = target: Dihydroorotate dehydrogenase (quinone), mitochondrial (Rattus norvegicus, UniProt Q63707)
[2] = in vivo; settings: Sprague-Dawley, rat, po, 5 mg/kg
[3] = target: T1, Nuclear receptor subfamily 4immunitygroup A member 1 (Homo sapiens, UniProt P22736); assay: cell-based
[4] = rat, in vivo, po, 5 mg/kg, 8 h
[5] = target: T2, Thyroid hormone receptor alpha (Homo sapiens, UniProt P10827)
T2 sequence (P10827 whole entry): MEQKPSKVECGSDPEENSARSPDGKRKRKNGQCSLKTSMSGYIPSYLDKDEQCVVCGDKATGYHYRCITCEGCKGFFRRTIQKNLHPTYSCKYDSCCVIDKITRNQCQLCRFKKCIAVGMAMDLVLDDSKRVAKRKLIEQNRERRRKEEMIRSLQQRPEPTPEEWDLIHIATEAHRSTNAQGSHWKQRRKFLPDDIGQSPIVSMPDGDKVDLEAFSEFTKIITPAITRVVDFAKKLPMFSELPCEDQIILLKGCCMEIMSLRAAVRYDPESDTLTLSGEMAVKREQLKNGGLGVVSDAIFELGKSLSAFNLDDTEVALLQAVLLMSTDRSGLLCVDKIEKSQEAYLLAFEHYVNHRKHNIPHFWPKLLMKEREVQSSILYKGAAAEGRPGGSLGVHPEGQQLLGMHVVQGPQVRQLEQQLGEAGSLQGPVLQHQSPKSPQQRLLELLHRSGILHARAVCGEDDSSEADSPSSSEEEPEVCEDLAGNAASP

[6] = target: T3, Retinoic acid receptor alpha (Homo sapiens, UniProt P10276)
T3 sequence (P10276 whole entry): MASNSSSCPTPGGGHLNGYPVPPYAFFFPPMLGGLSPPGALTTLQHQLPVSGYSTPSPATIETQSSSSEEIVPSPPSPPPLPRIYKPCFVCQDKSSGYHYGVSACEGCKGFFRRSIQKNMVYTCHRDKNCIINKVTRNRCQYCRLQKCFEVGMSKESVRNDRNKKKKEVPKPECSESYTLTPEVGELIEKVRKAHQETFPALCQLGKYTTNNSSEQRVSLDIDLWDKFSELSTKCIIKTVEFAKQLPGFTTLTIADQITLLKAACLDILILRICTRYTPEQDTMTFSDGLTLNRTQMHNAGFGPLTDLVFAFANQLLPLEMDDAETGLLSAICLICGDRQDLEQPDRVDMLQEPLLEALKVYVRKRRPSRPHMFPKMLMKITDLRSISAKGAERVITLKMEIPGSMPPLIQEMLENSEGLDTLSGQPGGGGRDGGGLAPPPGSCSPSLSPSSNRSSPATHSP

[7] = target: T4, Peroxisome proliferator-activated receptor gamma (Homo sapiens, UniProt P37231)
T4 sequence (P37231 whole entry): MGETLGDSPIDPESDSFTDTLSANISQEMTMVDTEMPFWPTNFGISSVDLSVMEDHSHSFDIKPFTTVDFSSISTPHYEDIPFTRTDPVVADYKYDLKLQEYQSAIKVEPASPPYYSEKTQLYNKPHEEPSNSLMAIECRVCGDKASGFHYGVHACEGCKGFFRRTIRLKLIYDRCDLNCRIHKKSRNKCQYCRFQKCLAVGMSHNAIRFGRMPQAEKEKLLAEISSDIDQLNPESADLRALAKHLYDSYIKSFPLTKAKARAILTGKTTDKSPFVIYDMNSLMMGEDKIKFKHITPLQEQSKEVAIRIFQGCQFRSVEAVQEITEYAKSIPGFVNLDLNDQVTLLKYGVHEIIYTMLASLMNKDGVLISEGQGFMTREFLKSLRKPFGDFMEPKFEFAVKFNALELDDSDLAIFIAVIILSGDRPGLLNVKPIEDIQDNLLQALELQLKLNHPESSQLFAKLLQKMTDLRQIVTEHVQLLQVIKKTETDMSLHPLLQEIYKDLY

[8] = target: T5, Bile acid receptor (Homo sapiens, UniProt Q96RI1)
T5 sequence (Q96RI1 whole entry): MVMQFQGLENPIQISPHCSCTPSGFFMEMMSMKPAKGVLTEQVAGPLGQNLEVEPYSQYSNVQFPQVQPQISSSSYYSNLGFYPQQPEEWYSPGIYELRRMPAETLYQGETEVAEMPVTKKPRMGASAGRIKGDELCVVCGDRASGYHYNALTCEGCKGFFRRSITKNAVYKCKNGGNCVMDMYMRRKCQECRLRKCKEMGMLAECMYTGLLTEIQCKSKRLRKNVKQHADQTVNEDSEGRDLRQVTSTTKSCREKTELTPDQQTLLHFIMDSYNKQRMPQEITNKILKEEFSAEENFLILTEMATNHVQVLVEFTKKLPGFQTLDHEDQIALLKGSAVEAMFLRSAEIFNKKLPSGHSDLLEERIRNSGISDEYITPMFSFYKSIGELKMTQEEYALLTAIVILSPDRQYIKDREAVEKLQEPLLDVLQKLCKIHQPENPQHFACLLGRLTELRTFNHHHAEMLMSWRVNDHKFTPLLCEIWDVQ

[9] = target: T6, Retinoic acid receptor RXR-alpha (Homo sapiens, UniProt P19793)
T6 sequence (P19793 whole entry): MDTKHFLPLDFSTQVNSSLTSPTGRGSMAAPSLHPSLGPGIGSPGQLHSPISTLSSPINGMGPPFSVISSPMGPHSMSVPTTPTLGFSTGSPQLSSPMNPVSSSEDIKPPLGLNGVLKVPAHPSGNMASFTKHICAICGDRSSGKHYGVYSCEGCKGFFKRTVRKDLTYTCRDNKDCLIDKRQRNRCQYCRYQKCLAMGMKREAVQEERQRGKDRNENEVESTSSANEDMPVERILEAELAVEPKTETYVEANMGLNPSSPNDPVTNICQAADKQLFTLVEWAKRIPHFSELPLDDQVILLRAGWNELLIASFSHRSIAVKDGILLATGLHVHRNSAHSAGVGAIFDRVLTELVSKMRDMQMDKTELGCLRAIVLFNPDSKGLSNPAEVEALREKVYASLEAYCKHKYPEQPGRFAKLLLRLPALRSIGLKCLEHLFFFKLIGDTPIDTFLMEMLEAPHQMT

[10] = target: Nuclear receptor subfamily 4 group A member 3 (Homo sapiens, UniProt Q92570)
[11] = target: T7, Vitamin D3 receptor (Homo sapiens, UniProt P11473)
T7 sequence (P11473 whole entry): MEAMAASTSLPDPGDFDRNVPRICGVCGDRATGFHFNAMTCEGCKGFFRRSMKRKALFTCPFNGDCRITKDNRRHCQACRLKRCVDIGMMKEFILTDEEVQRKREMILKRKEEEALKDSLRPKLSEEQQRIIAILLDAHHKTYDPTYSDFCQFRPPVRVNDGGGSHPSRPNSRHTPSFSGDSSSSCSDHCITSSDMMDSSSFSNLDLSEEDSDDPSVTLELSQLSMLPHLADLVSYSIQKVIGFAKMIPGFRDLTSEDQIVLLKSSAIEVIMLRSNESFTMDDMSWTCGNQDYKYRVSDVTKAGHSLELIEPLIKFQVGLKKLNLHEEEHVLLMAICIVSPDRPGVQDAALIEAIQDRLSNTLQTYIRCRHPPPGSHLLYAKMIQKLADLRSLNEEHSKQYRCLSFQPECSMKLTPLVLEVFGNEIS

[12] = target: T8, Peroxisome proliferator-activated receptor alpha (Homo sapiens, UniProt Q07869)
T8 sequence (Q07869 whole entry): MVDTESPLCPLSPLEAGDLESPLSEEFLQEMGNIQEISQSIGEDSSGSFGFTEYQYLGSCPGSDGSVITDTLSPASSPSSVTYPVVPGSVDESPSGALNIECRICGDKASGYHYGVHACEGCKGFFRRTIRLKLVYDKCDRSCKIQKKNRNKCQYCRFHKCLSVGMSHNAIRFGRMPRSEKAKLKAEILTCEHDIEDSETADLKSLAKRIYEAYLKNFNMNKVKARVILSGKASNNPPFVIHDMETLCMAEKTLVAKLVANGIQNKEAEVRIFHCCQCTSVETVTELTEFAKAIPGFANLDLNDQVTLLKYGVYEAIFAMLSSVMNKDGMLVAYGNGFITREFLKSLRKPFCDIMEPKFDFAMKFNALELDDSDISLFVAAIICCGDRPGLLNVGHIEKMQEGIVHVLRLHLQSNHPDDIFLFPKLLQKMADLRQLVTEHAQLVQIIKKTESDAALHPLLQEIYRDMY

[13] = target: T1, Nuclear receptor subfamily 4immunitygroup A member 1

T1 sequence (P22736 whole entry): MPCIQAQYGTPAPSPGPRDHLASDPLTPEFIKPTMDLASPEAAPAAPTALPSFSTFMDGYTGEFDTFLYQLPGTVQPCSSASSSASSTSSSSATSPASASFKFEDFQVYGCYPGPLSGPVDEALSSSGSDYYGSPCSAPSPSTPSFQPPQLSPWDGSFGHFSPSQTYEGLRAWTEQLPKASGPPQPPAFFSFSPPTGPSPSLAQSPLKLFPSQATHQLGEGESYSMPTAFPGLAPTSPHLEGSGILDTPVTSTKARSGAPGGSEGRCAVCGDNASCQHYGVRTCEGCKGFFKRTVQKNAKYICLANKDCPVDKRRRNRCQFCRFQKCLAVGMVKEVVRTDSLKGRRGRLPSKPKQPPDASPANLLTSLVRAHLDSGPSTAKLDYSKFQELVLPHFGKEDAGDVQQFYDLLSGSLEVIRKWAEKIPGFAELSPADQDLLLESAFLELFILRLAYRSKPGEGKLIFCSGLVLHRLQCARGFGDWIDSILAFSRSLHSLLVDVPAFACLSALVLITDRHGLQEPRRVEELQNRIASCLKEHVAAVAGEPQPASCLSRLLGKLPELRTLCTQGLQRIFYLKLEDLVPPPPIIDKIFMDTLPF
Sequence of Dihydroorotate dehydrogenase (quinone), mitochondrial (Q63707 whole entry): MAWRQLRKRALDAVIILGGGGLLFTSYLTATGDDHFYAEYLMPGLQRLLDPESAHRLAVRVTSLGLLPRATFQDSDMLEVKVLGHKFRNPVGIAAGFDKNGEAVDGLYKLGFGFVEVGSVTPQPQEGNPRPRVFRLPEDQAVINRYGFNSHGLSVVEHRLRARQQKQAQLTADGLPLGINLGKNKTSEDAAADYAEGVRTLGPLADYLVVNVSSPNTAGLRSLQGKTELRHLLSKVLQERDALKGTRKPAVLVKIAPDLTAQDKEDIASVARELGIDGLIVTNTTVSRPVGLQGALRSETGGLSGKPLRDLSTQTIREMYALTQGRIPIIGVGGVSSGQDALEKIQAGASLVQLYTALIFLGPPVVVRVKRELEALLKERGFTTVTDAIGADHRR
Sequence of Nuclear receptor subfamily 4 group A member 3 (Q92570 whole entry): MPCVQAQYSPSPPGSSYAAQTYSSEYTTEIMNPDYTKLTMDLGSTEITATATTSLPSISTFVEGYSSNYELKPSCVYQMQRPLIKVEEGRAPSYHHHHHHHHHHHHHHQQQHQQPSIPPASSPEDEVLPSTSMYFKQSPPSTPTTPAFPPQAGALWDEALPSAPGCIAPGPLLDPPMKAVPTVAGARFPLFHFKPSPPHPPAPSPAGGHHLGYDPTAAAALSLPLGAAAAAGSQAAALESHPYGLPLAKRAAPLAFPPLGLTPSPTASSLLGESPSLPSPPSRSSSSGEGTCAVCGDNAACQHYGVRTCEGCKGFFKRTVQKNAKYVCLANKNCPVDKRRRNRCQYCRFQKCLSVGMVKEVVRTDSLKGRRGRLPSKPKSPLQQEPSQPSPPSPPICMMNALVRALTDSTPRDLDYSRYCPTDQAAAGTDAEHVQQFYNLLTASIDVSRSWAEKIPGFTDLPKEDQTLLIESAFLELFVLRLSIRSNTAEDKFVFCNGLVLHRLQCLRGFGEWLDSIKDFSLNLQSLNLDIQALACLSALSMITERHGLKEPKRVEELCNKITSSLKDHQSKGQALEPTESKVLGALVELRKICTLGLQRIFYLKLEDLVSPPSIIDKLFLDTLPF

IC50 [1] [µM] | AUC at 8 h [2] [µM·h] | EC50 [3] [µM] | Cmax [4] [µM] | SMILES | EC50 [5] [µM] | EC50 [6] [µM] | EC50 [7] [µM] | EC50 [8] [µM] | EC50 [9] [µM] | EC50 [10] [µM] | EC50 [11] [µM] | EC50 [12] [µM] | EC50 [13] [µM]
6 | 290 | 1.4 | 56 | C#CCOc1cccc(-c2ccc(NC(=O)C3=C(C(=O)O)CCC3)c(F)c2)c1 | – | – | – | – | – | – | – | – | –
– | – | – | – | COc1cccc(-c2ccc(NC(=O)C3=C(C(=O)O)CCC3)c(F)c2)c1 [VIDOFLUDIMUS] | > 10 | > 10 | > 10 | > 10 | > 10 | 2.9 | > 10 | > 10 | 3.1
